Experimental data as given in paper PMC11381239, “Endocannabinoid regulation of inward rectifier potassium (Kir) channels” (Frontiers in Pharmacology, 2024).
Where a chain is given by its changes, count along the chain named. Read-outs that look alike come from different tables or passages of the source.

Columns and labels:
Experiment in all cases: two-electrode voltage clamp, slope conductance Gmax
Format in all cases: cell-based
Kir2.1 = target: T1, Kir2.1 (Homo sapiens, UniProt P63252); settings: for Emax (%): maximal increase in Gmax, vehicle (ethanol) control in same table
T1 construct: gene KCNJ2; full-length human Kir2.1 cDNA in pcDNA3.1, RNA expressed in Xenopus laevis oocytes; homotetramer
T1 sequence (P63252 1-427): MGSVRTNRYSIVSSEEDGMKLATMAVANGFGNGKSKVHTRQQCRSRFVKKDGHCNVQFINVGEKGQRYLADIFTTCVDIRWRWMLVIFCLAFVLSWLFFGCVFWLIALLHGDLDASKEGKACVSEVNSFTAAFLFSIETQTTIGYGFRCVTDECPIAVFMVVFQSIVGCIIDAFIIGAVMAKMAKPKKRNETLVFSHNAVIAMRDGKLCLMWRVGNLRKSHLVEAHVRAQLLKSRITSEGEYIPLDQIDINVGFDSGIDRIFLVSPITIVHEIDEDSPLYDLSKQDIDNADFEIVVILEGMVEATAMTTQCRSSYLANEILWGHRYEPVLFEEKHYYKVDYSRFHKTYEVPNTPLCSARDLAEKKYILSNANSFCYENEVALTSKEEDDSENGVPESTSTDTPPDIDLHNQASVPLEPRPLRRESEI
From the text: two-electrode voltage clamp, slope conductance Gmax on Kir2.1

WT:G144S Kir2.1 = target: T2, WT:G144S Kir2.1 (Homo sapiens, UniProt P63252, G144S)
T2 construct: gene KCNJ2; WT Kir2.1 co-expressed 1:1 with LQT7 mutant G144S Kir2.1 in Xenopus laevis oocytes; mixed tetramers, exact subunit stoichiometry not fixed
T2 sequence (P63252 1-427): T1 sequence (P63252 1-427)
T2 sequence (P63252 1-427 G144S): T1 sequence (P63252 1-427) with G144S

Kir4.1 = target: T3, Kir4.1 (Rattus norvegicus, UniProt P49655)
T3 construct: gene Kcnj10; full-length rat Kir4.1 cDNA in pcDNA3.1, RNA expressed in Xenopus laevis oocytes; homotetramer
T3 sequence (P49655 1-379): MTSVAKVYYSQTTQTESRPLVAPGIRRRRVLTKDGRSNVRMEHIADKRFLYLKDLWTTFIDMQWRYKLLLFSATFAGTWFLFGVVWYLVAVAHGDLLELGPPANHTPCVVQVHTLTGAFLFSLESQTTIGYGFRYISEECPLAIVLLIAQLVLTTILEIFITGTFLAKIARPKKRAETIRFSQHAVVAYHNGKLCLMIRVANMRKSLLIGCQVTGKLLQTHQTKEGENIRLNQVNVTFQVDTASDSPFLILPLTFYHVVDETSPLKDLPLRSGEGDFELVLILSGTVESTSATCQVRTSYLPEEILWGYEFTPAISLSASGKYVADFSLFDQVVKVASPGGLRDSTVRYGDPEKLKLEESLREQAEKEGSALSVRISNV
From the text: two-electrode voltage clamp, slope conductance Gmax on Kir4.1

[1] = 89 mM KCl bath, pH 7.4, room temperature

Compound: CCCCCCCC/C=C\CCCCCCCC(=O)NCCO [OEA]
- EC50 (Kir2.1): 9.2 ± 0.9 µM

Compound: CCCCC/C=C\C/C=C\C/C=C\C/C=C\CCCC(=O)NCCO [AEA]
- Emax (%) (Kir2.1; [1]): 5.3 ± 1.3%

Compound: CCCCC/C=C\C/C=C\C/C=C\C/C=C\CCCC(=O)NCC(=O)O [NAGly]
- EC50 (Kir2.1): 27.7 ± 2.8 µM

Compound: CCCCCC/C=C\CCCCCCCC(=O)NCCO [POEA]
- EC50 (Kir2.1): 9.3 ± 0.7 µM

Compound: CCCCC/C=C\C/C=C\C/C=C\C/C=C\CCCC(=O)OCC(O)CO (stereo not drawn) [1-AG]
- EC50 (Kir2.1): 20 ± 0.9 µM

Compound: CCCCCCCCCCCCCCCC(=O)OC(CO)CO [2-PG]
- EC50 (Kir2.1): 12.7 ± 2 µM
- EC50 (WT:G144S Kir2.1): 11.7 ± 1 µM
- EC50 (Kir4.1): 12.4 ± 0.7 µM

Compound: CCCCCCCC/C=C\CCCCCCCCCCCCCC(=O)NCCO [NEA]
- EC50 (Kir2.1): 23.3 ± 2.1 µM

Compound: oxy-AEA
- EC50 (Kir2.1; activation, 89 mM KCl bath, pH 7.4, room temperature, mode: indirect via membrane according to authors): 25.3 ± 1.1 µM

Compound: CCCCC/C=C\C/C=C\CCCCCCCC(=O)NCCO [LEA]
- EC50 (Kir2.1): 29 ± 1 µM

Compound: CCCCCCCCCCCCCCCCCC(=O)NCCO [SEA]
- EC50 (Kir2.1): 10.2 ± 4.9 µM

Compound: CCCCC/C=C\C/C=C\C/C=C\CCCCC(=O)NCCO [ϒLnEA]
- EC50 (Kir2.1): 36.8 ± 3.8 µM

Compound: CC/C=C\C/C=C\C/C=C\CCCCCCCC(=O)NCCO [αLnEA]
- EC50 (Kir2.1): 24.5 ± 4.2 µM

Compound: CCCCCCCCCCCCCCCCCCCC(=O)NCCO [ArEA]
- EC50 (Kir2.1): 12.6 ± 4.1 µM
- EC50 (WT:G144S Kir2.1): 30.7 ± 3.4 µM
- EC50 (Kir4.1): 4.5 ± 3.9 µM

Compound: CCCCC/C=C\C/C=C\C/C=C\C/C=C\CCCC(=O)N[C@@H](CO)C(=O)O [AS]
- Emax (%) (Kir2.1; [1]): 1.0 ± 0.1%

Compound: CCCCC/C=C\C/C=C\C/C=C\C/C=C\CCCCCC(=O)NCCO [DEA]
- EC50 (Kir2.1): 32 ± 3.9 µM

Compound: CCCCC/C=C\C/C=C\CCCCCCCC(=O)OC(CO)CO [2-LG]
- Emax (%) (Kir2.1; [1]): 5.4 ± 0.3%

Compound: CCCCC/C=C\C/C=C\C/C=C\C/C=C\CCCC(=O)OC(CO)CO [2-AG]
- EC50 (Kir2.1): 25.5 ± 1.1 µM
